Results on 2 molecules are retold here after patent US8618110B2, “Compositions and methods for apoptosis modulators” (VM Discovery Inc., priority 2007, dated 2013).

pIC50: −log10 of the molar value.

Broadly, the pIC50 is the negative decadic logarithm of the IC50, by convention in mol/L.

The test system of assay [1] is SF268 (glioblastoma) tumor cell line. Put plainly: MTT proliferation assay, SF268. It counts as cell-based. The settings on record: Homo sapiens, SF-268, 120 h, 5 days. As for the experimental part: (§1) Human tumor cell lines were obtained from the American Type Culture Collection, the National Cancer Institute or from the originator as a kind gift. All cells were grown in RPMI 1640 (Invitrogen) medium containing 10% fetal bovine serum and 2 mM L-glutamine.
(§2) Logarithmically growing cells cultured in T75 flasks (Falcon) were harvested and inoculated into 96 well microtiter plates in 100 μL at plating densities ranging from 2,000 to 5,000 cells/well depending on the doubling time of individual cell lines. After cell inoculation, the microtiter plates are incubated at 37° C., 5% CO2, 95% air and 100% relative humidity for 24 h prior to addition of drug.
(§3) After 24 h, one plate of each cell line is developed with MTT (3-4,5-Dimethylthiazol-2-yl)-2,5-diphenyltetrazolium bromide, yellow), which is reduced to purple formazan in the mitochondria of living cells. […] The absorbance of this colored solution can be quantified by measuring at a certain wavelength (usually between 500 and 600 nm) by a spectrophotometer. […] The d0 growth value for each cell line is later deducted from each of the readouts at termination of the experiment. Essentially the final readouts are normalized for baseline growth, which enables us direct deduction of growth inhibition parameters from the graphed data. […]
(§4) Two independent experiments were conducted and the IC50 concentrations calculated plus/minus standard deviation.

The test system of assay [2] is DU-145 (prostate) tumor cell line. Put plainly: MTT proliferation assay, DU-145. It counts as cell-based, human. The settings on record: FIG. 1C. As for the experimental part: as §1, §2, §3, §4
A general note: Formazan colour is commonly taken as a measure of viable cells.

Assay [3] has as its system H460 (lung) tumor cell line. Put plainly: MTT proliferation assay, H460. It counts as cell-based, human. The settings on record: FIG. 1B. As for the experimental part: as §1, §2, §3, §4
Assay [4] relates to H23 (lung) tumor cell line. Put plainly: MTT proliferation assay, H23. In kind it is cell-based, human. The settings on record: FIG. 1A. As for the experimental part: as §1, §2, §3, §4
For a further assay, the system named is human tumor cell lines. Put plainly: MTT proliferation assay, human tumor cell lines. It counts as cell-based. The settings on record: H23, H460, DU-145; IC50 comparison. As for the experimental part: as §1, §2, §3, §4

For the molecule `O=C(O)c1ccc(N2CCN(CCCn3c4c(n[n+]3[O-])C(=O)c3ccccc3C4=O)CC2)cc1` [Compound 101], the pIC50 in assay [1] was 6.48.
With `CN(C)CC[C@H](CSc1ccccc1)Nc1ccc(S(=O)(=O)NC(=O)c2ccc(N3CCN(Cc4ccccc4-c4ccc(Cl)cc4)CC3)cc2)cc1[N+](=O)[O-]` [Abt-737], the “IC50 values (range in words)” value in assay [2], in assay [3] and in assay [4] was “high μM range” each time. For the same molecule, the “potency compared with VMD in the same cell lines” value in the assay with human tumor cell lines was “at least two-order of magnitude less potent”.
